The subject of data set [1] is U2OS. Description: Inhibition of Aurora kinase in nocodazole-synchronized human U2OS cells assessed as reduction of histone H3 serine-10 phosphorylation at 0.07 to 10 uM after 2 hrs immunofluorescence microscopy. The data set is classed as cell-based.
The subject of data set [2] is A2780. Description: Cytotoxicity against human A2780 cells after 96 hrs by MTT assay. The following applies: A2780, 96 h. It counts as functional, cell-based.
The subject of data set [3] is MCF7. Kind of data set: Induction of p53 protein expression in human MCF7 cells at 150 nM after 7 hrs by fluorescent microscopy. It counts as functional, cell-based.
Data set [4] deals with MIA PaCa-2. Kind of data set: Cytotoxicity against human MIAPaCa2 cells after 96 hrs by MTT assay. The following applies: MIA PaCa-2, 96 h. It counts as functional, cell-based. (In general: Formazan colour is commonly taken as a measure of viable cells.)
Data set [5] relates to U2OS. Description: Inhibition of Aurora kinase in asynchronous human U2OS cells assessed as reduction of histone H3 serine-10 phosphorylation at 150 nM after 7 hrs immunofluorescence microscopy. The data set is classed as cell-based.
The test system of data set [6] is A549. Description: Cell cycle arrest in asynchronous human A549 cells assessed as accumulation of cyclin B-positive tetraploid cells at G2/M phase at 0.5 to 2 uM after 7 hrs by FACS analysis. It counts as functional, cell-based. In general terms: In flow cytometry, cells or beads pass a laser one at a time.
Data set [7] in a line: Inhibition of Aurora kinase in human A549 cells assessed as concentration required for half-maximal inhibition of histone H3 serine-10 phosphorylation after 7 hrs immunofluorescence microscopy. The data set is classed as cell-based. The following applies: A549, 7 h.
In data set [8] the test system is K562. Kind of data set: Cytotoxicity against human K562 cells after 96 hrs by MTT assay. It counts as functional, cell-based. The following applies: K562, 96 h.
The target in data set [9] is Cyclin-dependent kinase 9 (Homo sapiens, UniProt P50750). Kind of data set: Inhibition of CDK9.
Data set [10] can be described thus: Aqueous solubility by turbidimetric analysis. It counts as physicochemical.
Data set [11] relates to HCT-116. Kind of data set: Cytotoxicity against human HCT116 cells after 96 hrs by MTT assay. The data set is classed as functional, cell-based. As to conditions: HCT-116, 96 h.
Data set [12] concerns HeLa. Description: Cytotoxicity against human HeLa cells after 96 hrs by MTT assay. It counts as functional, cell-based.
Data set [13] can be described thus: Octanol-aqueous buffer partition coefficient, log D at pH 7.4 by shake-flask method. It counts as physicochemical.
Data set [14] is described as follows: Elimination half life in Wistar rat at 10 mg/kg, po by LC/MS/MS analysis. The data set is classed as ADME, organism-based. Set-up: dose 10 mg/kg, route oral. As to conditions: in vivo, read-out: beta t1/2 (converted).
Data set [15] deals with Aurora kinase B (Homo sapiens, UniProt Q96GD4). Kind of data set: Inhibition of human recombinant Aurora B after 60 mins.
A short description of data set [16]: Dissociation constant, pKa by pH-metric titration method. It counts as physicochemical.
Data set [17] deals with A549. Description: Cell cycle arrest in asynchronous human A549 cells assessed as accumulation of cyclin B-negative diploid and tetraploid cells at G1 phase at 2 uM after 24 hrs by FACS analysis. The data set is classed as functional, cell-based.
Data set [18] in a line: Apparent permeability across human Caco-2 cell membrane. It counts as ADME, cell-based.
The subject of data set [19] is HuP-T4. Kind of data set: Cytotoxicity against human HUPT4 cells after 96 hrs by MTT assay. It counts as functional, cell-based. The following applies: HuP-T4, 96 h.
The subject of data set [20] is HT-29. Kind of data set: Cytotoxicity against human HT-29 cells after 96 hrs by MTT assay. The following applies: HT-29, 96 h. It counts as functional, cell-based.
The nature of data set [21]: Clearance in Wistar rat at 10 mg/kg, po after 24 hrs by LC/MS/MS analysis. The data set is classed as ADME, organism-based. Set-up: dose 10 mg/kg, route oral. The following applies: in vivo.
Data set [22] is described as follows: Cytotoxicity against human MESSA cells after 96 hrs by MTT assay. The data set is classed as functional, cell-based. As to conditions: MES-SA.
Data set [23] deals with BXPC-3. Description: Cytotoxicity against human BxPC3 cells after 96 hrs by MTT assay. It counts as functional, cell-based. As to conditions: BXPC-3, 96 h.
The test system of data set [24] is HL-60. Kind of data set: Cytotoxicity against human HL60 cells after 96 hrs by MTT assay. It counts as functional, cell-based. As to conditions: HL-60, 96 h.
The test system of data set [25] is A549. Kind of data set: Cell cycle arrest in asynchronous human A549 cells assessed as accumulation of cyclin B-negative diploid cells at G1 phase at 0.5 uM after 24 hrs by FACS analysis. The data set is classed as functional, cell-based.
Data set [26] can be described thus: AUC (0 to 24 hrs) in Wistar rat at 10 mg/kg, po after 24 hrs by LC/MS/MS analysis. It counts as ADME, organism-based. Set-up: time < 24 hr, dose 10 mg/kg, route oral. As to conditions: plasma.
In data set [27] the target is Cyclin-dependent kinase 1 (Homo sapiens, UniProt P06493). Description: Inhibition of CDK1.
Data set [28] concerns NCI-H460. Description: Cytotoxicity against human NCI-H460 cells after 96 hrs by MTT assay. The data set is classed as functional, cell-based. The following applies: NCI-H460, 96 h.
Data set [29] is described as follows: Cmax in Wistar rat at 10 mg/kg, po after 24 hrs by LC/MS/MS analysis. As to conditions: in vivo. The data set is classed as ADME, organism-based. Set-up: dose 10 mg/kg, route oral.
Data set [30] can be described thus: Fraction unbound in rat plasma by equilibrium dialysis. It counts as ADME, cell-free. (In general: In equilibrium dialysis free small molecules cross a membrane that holds back macromolecules.)
The subject of data set [31] is CCRF-CEM. Description: Cytotoxicity against human CCRF-CEM cells after 96 hrs by MTT assay. It counts as functional, cell-based.
The target of data set [32] is Cyclin-dependent kinase 7 (Homo sapiens, UniProt P50613). Kind of data set: Inhibition of CDK7.
Data set [33] concerns MV4-11. Description: Cytotoxicity against human MV4-11 cells after 96 hrs by MTT assay. The data set is classed as functional, cell-based. The following applies: MV4-11, 96 h.
The test system of data set [34] is COLO 205. Kind of data set: Cytotoxicity against human COLO205 cells after 96 hrs by MTT assay. It counts as functional, cell-based. As to conditions: COLO 205, 96 h.
For data set [35], the system named is A549. Kind of data set: Effect on mitotic index in asynchronous human A549 cells assessed as appearance of misaligned chromosomes with shortened spindle fibres at 0.5 uM after 8 hrs […]. It counts as functional, cell-based.
The nature of data set [36]: Half life in rat liver microsomes by LC/MS/MS analysis. It counts as ADME, Microsome.
In data set [37] the test system is SAOS-2. Description: Cytotoxicity against human Saos2 cells after 96 hrs by MTT assay. The data set is classed as functional, cell-based. As to conditions: SAOS-2, 96 h.
The nature of data set [38]: Oral bioavailability in Wistar rat at 10 mg/kg after 24 hrs by LC/MS/MS analysis. The data set is classed as ADME, organism-based. As to conditions: in vivo.
The subject of data set [39] is Liver microsomes. Kind of data set: Intrinsic clearance in rat liver microsomes by LC/MS/MS analysis. It counts as ADME, Microsome.
Data set [40] addresses T1, Aurora kinase A (Homo sapiens, UniProt O14965).
T1 sequence (O14965 whole entry): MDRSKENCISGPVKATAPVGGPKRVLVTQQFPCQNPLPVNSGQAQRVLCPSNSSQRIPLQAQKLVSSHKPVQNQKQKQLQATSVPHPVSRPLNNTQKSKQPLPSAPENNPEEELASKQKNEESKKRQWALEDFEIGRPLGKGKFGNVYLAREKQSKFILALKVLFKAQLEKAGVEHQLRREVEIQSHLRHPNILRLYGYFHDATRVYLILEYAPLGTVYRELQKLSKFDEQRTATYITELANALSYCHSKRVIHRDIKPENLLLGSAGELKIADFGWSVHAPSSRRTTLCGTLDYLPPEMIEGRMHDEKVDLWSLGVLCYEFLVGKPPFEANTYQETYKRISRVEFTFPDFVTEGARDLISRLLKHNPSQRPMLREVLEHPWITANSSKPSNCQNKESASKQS
Description: Inhibition of human recombinant Aurora A after 30 mins.

We go through 2 compounds from ChEMBL document CHEMBL1155519, “Discovery of N-phenyl-4-(thiazol-5-yl)pyrimidin-2-amine aurora kinase inhibitors” (J Med Chem, 2010).

In brackets after ≈: the same amount, converted by molar mass. Activity calls are given as the source filed them. The rule behind the calls is not given here.

Sequence of Aurora kinase B (Q96GD4 whole entry): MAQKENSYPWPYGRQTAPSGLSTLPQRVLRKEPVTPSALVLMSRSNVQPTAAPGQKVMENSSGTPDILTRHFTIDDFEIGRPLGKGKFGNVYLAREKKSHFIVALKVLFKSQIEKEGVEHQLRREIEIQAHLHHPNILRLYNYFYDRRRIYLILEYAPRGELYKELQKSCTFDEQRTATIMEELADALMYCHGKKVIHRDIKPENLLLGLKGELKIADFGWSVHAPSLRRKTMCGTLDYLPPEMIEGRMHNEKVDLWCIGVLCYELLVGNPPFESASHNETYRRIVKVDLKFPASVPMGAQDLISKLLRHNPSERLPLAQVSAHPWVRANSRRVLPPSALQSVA
Sequence of Cyclin-dependent kinase 1 (P06493 whole entry): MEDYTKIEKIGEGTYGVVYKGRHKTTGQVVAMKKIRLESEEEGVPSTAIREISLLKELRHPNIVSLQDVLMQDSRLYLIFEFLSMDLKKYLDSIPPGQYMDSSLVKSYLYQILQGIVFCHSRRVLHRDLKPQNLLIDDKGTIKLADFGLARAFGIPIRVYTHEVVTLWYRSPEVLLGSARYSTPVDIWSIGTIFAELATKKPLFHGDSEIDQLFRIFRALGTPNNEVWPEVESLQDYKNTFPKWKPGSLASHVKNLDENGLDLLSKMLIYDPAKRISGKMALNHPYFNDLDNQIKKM
Sequence of Cyclin-dependent kinase 9 (P50750 whole entry): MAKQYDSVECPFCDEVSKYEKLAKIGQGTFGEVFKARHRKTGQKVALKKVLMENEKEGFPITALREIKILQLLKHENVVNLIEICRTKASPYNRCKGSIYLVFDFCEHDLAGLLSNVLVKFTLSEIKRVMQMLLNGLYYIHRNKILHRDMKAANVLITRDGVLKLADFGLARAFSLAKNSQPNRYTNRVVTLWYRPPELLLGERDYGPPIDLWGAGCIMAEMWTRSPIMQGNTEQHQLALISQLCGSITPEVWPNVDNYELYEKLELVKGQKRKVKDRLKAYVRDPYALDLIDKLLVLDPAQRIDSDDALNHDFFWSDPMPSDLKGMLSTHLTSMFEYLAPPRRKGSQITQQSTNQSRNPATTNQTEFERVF
Sequence of Cyclin-dependent kinase 7 (P50613 whole entry): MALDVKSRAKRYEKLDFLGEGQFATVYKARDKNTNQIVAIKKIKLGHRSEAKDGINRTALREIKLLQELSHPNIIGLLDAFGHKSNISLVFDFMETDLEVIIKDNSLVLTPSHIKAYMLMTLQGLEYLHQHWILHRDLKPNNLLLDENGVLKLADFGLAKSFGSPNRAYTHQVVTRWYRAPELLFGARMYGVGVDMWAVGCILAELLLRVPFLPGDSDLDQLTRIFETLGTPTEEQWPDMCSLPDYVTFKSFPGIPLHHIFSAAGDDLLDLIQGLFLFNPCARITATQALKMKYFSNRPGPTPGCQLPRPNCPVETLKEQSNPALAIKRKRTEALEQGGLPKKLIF

By IC50 is commonly meant the point on the concentration scale where inhibition reaches its midpoint. As for `Cc1nc(N)sc1-c1ccnc(Nc2cccc([N+](=O)[O-])c2)n1`, the inhibition entry in [1] was “Active”. Moreover, the IC50 is 0.048 µM in [2] and 0.139 µM in data set [4]. The result in data set [3] and in [5] was Active.

The Ki is a dissociation constant, usually derived from enzyme kinetics or from competition with a known ligand. For orientation: solubility (kinetic) means solubility judged after dilution from a stock solution rather than from solid. What is called logD is the decadic logarithm of the distribution of all forms, ionised or not, between an organic phase and buffer at a given pH. The low end stands for a more hydrophilic compound, the high end for a more lipophilic compound. A word on the pKa: it is the pH at which an ionisable group is half protonated. One may read the Papp as a coefficient for how fast a substance crosses the barrier. As usually defined, the CL/F is clearance divided by bioavailability, as obtained after extravascular dosing. As usually defined, the AUC(0-t) is the area under the concentration-time curve up to a stated or last time point. A word on the Cmax: it is the highest concentration seen after dosing. Usually fraction unbound stands for the share of the substance not bound to proteins or other matrix. A high value points to weak binding. One may read the bioavailability as the share of a dose that reaches the circulation, judged against a reference dose that is usually intravenous. The low end stands for little systemic uptake, the high end for much systemic uptake. As to `Cc1nc(C)c(-c2ccnc(Nc3ccc(N(C)C)cc3)n2)s1`, the result in data set [6], in data set [17], in [25] and in data set [35] was Active. Besides, the IC50 in [7] was found to be 2.6 µM; in [8], 0.04 µM; in data set [11], 0.133 µM; in data set [12] it was 0.19 µM; in [19], 0.156 µM; in data set [20], 0.128 µM. Besides, the IC50 in data set [2] is 0.157 µM; in [22], 0.11 µM; in data set [23] it was 0.093 µM; in [24] it was 0.128 µM; in data set [28], 0.18 µM; in data set [31], 0.17 µM. For the same compound, the IC50 in data set [33] came out at 0.11 µM; in data set [4], 0.177 µM; in data set [34], 0.084 µM; in data set [37], 0.32 µM. For the same compound, the Ki is 0.575 µM in data set [9]; 0.015 µM in [15]; 2.52 µM in data set [27]; 4.01 µM in [32]; 0.0069 µM in data set [40]. The solubility (kinetic) in data set [10] was determined as 20 µM (≈ 6.51 µg/mL). For the same compound, in data set [13], the logD stood at 1.33. Moreover, the half-life in data set [14] was 4.4 h; in data set [36], 4.7 min. The compound further gave a pKa in data set [16] of 5.5. For the same compound, in data set [18], the Papp was 49.2 ×10⁻⁶ cm/s. Further, the inhibition entry in data set [1] is “Active”. For the same compound, the apparent clearance (CL/F) in data set [21] was 70 mL/min/kg. The AUC(0-t) at 24 h in data set [26] was 6.9 µM·h. In data set [29], the Cmax stood at 900 nM. This compound also yielded a fraction unbound in data set [30] of 0.96. The bioavailability in [38] stood at 7%. The same compound registered a clearance in data set [39] of 296 µL/min/mg.
